Where “and” joins values, the source holds several entries; their conditions need not be identical. Equal entries are not always repeated.
How the values were obtained:
Assay type in all cases: functional, Homo sapiens
Parameters in all cases: dose or concentration left out as unconfirmed
Colon cancer organoid [1] = assay: (§1) Image-based profiling of donated chemical probes and chemogenomic kinase set in O06 CRC organoid. Image analysis is performed on the sum area metric, and the data were normalized to the DMSO control. After imaging the organoid viability is measured using the OneGloEX Luciferase Assay System. The normalized viability data and sum area are reported.
Colon cancer organoid [2] = assay: as §1, with “O09” for “O06”
Colon cancer organoid [3] = assay: as §1, with “O21” for “O06”

SMILES | Cell Viability (Colon cancer organoid [1]; Replication number 1) | Cell Viability (Colon cancer organoid [1]; Replication number 2) | Cell Viability (Colon cancer organoid [2]; Replication number 1) | Cell Viability (Colon cancer organoid [2]; Replication number 2) | Cell Viability (Colon cancer organoid [3]; Replication number 1) | Cell Viability (Colon cancer organoid [3]; Replication number 2)
C[C@@H]1CN(c2cc(-c3nn(C)c4ccc(OC5(C)CC5)cc34)ncn2)C[C@H](C)O1 [MLi-2-NC] | 109.32% and 103.981% | 134.588% and 115.132% | 104.615% and 76.2145% | 63.1554% and 89.3757% | 92.869% and 94.89% | 95.8024% and 129.082%
CC(=O)c1c(NS(C)(=O)=O)c2cc(-c3ccc(Cl)cc3)c(-c3ccc(Cl)cc3Cl)nc2n(C)c1=O [MRL-CB1-NC] | 116.774% and 92.5059% | 73.5946% and 87.6518% | 160.352% and 102.495% | 132.682% and 100.183% | 126.549% and 100.129% | 108.062% and 94.898%
Cc1ccc(-c2cnc([C@@]3(O)CC[C@H](C(=O)O)C(C)(C)C3)s2)cc1Nc1cccc(C(F)(F)F)n1 [MRL-SYKi-NC] | 90.9085% and 96.9555% | 94.2486% and 84.0983% | 109.363% and 85.7712% | 161.475% and 115.078% | 112.056% and 96.0543% | 96.6815% and 86.7347%
COc1cc(C(=O)O)ncc1C#Cc1ccccc1NS(=O)(=O)c1cccc2c(N(C)C)ccnc12 [MSC-0516] | 100.098% and 102.024% | 96.9075% and 85.7761% | 106.133% and 95.2857% | 130.736% and 112.411% | 88.3697% and 90.0327% | 92.8274% and 92.794%
FC(F)(F)c1ccc2c(c1)nc(-c1cccnc1)n2C1CC1 [MSD-CYP11B2-Negative-control] | 82.4588% and 96.4372% | 50.7409% and 62.2297% | 82.6005% and 103.914% | 111.8% and 104.679% | 89.0845% and 95.4893% | 78.0159% and 105.031%
CC(C)(O)c1cncc(-c2nc3ccc(F)cc3n2C2CC2)c1 [MSD-CYP11B2] | 79.0545% and 113.441% | 106.294% and 130.706% | 85.3446% and 107.103% | 121.971% and 103.489% | 108.022% and 122.772% | 100.134% and 120.326%
N#CC1(c2ccccn2)CCN(Cc2cc(C(=O)N3CCCC3)c(=O)n3ccccc23)CC1 [MSD-M1PAM-NC] | 114.688% and 98.8664% | 108.691% and 97.5493% | 69.2847% and 91.5343% | 101.66% and 96.3521% | 100.616% and 90.5784% | 99.0735% and 86.6757%
CC(=O)Nc1c(C(C)=O)c(=O)n(C)c2nc(-c3ccc(Cl)cc3Cl)c(-c3ccc(Cl)cc3)cc12 [NAPHTHYRIDINONE] | 123.545% and 117.564% | 103.77% and 94.7587% | 117.091% and 130.21% | 64.3844% and 79.7371% | 94.8536% and 101.294% | 91.9114% and 85.7143%
CO[C@@H](C)c1c(Nc2ccc([C@@H](N(C)C(=O)C3CCS(=O)(=O)CC3)C(F)(F)F)cc2)cnc2cc(Cl)nn12 [NVS-MALT1-C] | 48.3396% and 100.567% | 78.0608% and 112.446% | 63.1352% and 96.7863% | 75.29% and 89.0167% | 68.6015% and 94.398% | 97.4598% and 109.109%
CO[C@@H](C)c1c(Nc2ccc([C@H](N(C)C(=O)C3CCS(=O)(=O)CC3)C(F)(F)F)cc2)cnc2cc(Cl)nn12 [NVS-MALT1] | 53.942% and 90.6073% | 65.826% and 102.355% | 78.0421% and 97.349% | 96.1339% and 95.7573% | 116.026% and 99.8545% | 97.0711% and 89.225%
COc1ncc(-c2ccc3nccc(-c4ccnnc4)c3c2)cc1NS(=O)(=O)c1ccc(F)cc1F [OMIPALISIB] | 2.947% and 9.014% | 1.718% and 5.799% | 14.1746% and 4.189% | 12.1613% and 4.9671% | 14.5309% and 34.1185% | 
Nc1nc(NCc2ccccc2)nc(-c2ccccc2CO)n1 [Ogerin] | 105.073% and 119.514% | 91.1794% and 124.7% | 84.1314% and 95.0982% | 82.0321% and 100.912% | 116.019% and 92.2153% | 95.1453% and 93.8137%
OCCn1cc(-c2cnc3nnn(Cc4ccc5ncccc5c4)c3n2)cn1 [PF-04217903] | 92.042% and 100.376% | 104.418% and 102.005% | 126.877% and 95.995% | 92.9183% and 79.3656% | 106.76% and 119.861% | 108.21% and 119.755%
C[C@H](c1ccc(F)cc1)N(Cc1cccc(C(=O)O)c1)C(=O)c1cnc2ccccc2c1 [PF-05105679] | 106.225% and 110.304% | 129.169% and 147.587% | 96.3652% and 120.892% | 63.8781% and 75.356% | 102.98% and 107.115% | 83.9126% and 93.8775%
C[C@H](c1ccc(F)cc1)N(Cc1ccc(Cl)c(C(=O)O)c1)C(=O)c1cnc2ccccc2c1 [PF-05257137] | 112.636% and 114.286% | 58.4583% and 44.0628% | 171.765% and 153.146% | 140.713% and 101.643% | 104.015% and 83.2471% | 99.7446% and 91.3265%
CS(=O)(=O)N1CCN(Cc2cc3nc(-c4cccc5[nH]ncc45)nc(N4CCOCC4)c3s2)CC1 [PICTILISIB] | 32.227% and 73.4455% | 23.961% and 57.7892% | 49.7053% and 32.4139% | 55.1776% and 34.8237% | 58.3035% and 68.0139% | 64.7873% and 89.8165%
COc1ncc(F)cc1CNc1ccc(Cc2c[nH]c3ncc(C)cc23)c(F)n1 [PLX-5622] | 113.45% and 123.522% | 100.072% and 108.792% | 193.371% and 111.454% | 159.434% and 112.03% | 106.139% and 77.4913% | 117.508% and 96.7254%
Cc1noc(C)c1-c1cnc2c(-c3ccc(C(=O)O)cc3)cn([C@@H](C)c3ccccn3)c2c1 [PLX-51107] | 28.5018% and 57.9866% | 31.105% and 59.0281% | 42.9449% and 37.558% | 38.2971% and 35.6351% | 101.544% and 130.503% | 74.8766% and 126.73%
CC(C)(C)c1cc(NC(=O)Nc2ccc(-c3cn4c(n3)sc3cc(OCCN5CCOCC5)ccc34)cc2)no1 [QUIZARTINIB] | 39.693% and 48.7411% | 34.5672% and 63.5476% | 85.316% and 55.6023% | 92.2589% and 77.476% | 67.5016% and 73.0314% | 71.418% and 77.7258%
CN(C)C(=O)c1cc2cnc(Nc3ccc(N4CCNCC4)cn3)nc2n1C1CCCC1 [RIBOCICLIB] | 18.4025% and 48.7411% | 14.7054% and 40.1028% | 49.4558% and 44.8808% | 42.3849% and 44.8119% | 76.3687% and 83.6237% | 91.6892%
O=C(CCCCCCNC(=O)c1cnc(N(c2ccccc2)c2ccccc2)nc1)NO [RICOLINOSTAT] | 107.943% and 108.966% | 120.178% and 118.056% |  | 236.119% and 135.984% | 136.698% and 150.49% | 122.116% and 112.232%
C=CC(=O)Nc1ccc2[nH]c(=O)n(C3CCN(Cc4ccc(-c5ccc6c(c5)NC(=O)CO6)cc4)CC3)c2c1 [RL2578] | 82.8871% and 90.6073% | 145.126% and 114.128% | 79.7893% and 107.853% | 131.51% and 111.42% | 100.847% and 118.952% | 88.0648% and 119.816%
CN(C)CCOc1ccc(-c2nc(-c3ccncc3)c(-c3ccc4c(c3)CC/C4=N\O)[nH]2)cc1 [SB590885] | 179.76% and 135.095% | 115.548% and 114.756% | 91.6254% and 70.3132% | 62.6087% and 63.1686% | 87.754% and 100.348% | 97.8507% and 97.8769%
CC[C@H](CO)Nc1nc(NCc2ccccc2)c2ncn(C(C)C)c2n1 [SELICICLIB] | 146.934% and 137.321% | 92.4206% and 95.8355% | 133.303% and 96.4937% | 129.12% and 84.4947% | 79.2225% and 95.8885% | 112.922% and 92.6952%
C[C@@H]1CCc2ncc(F)cc2[C@H]2CCCN2c2ccn3ncc(c3n2)C(=O)N1 [SELITRECTINIB] | 134.929% and 121.742% | 93.5037% and 107.969% | 111.995% and 102.727% | 91.1731% and 73.4267% | 119.212% and 110.383% | 103.521% and 97.8769%
Cc1cc(F)c(C(=O)Nc2cccc(-c3nncn3C(C)C)n2)cc1-n1cnc(C2CC2)c1 [SELONSERTIB] | 102.175% and 96.1469% | 88.4921% and 93.9846% | 115.111% and 84.0268% | 104.846% and 82.0651% | 96.1672% and 86.9686% | 76.8515% and 83.4833%
